By MIC is commonly meant the lowest concentration found to suppress growth.

≈ marks a conversion by molar mass, not a printed value.

Holding throughout (assay type): cell-based
For assay [1], the system named is Akkermansia muciniphila EB-AMDK39 strain. Put plainly: Antimicrobial susceptibility, broth microdilution MIC (CLSI), isolated strain. The note with it: for MIC: Akkermansia muciniphila, EBAMDK39STRAIN, read-out: MIC, test strain EB-AMDK39, broth microdilution. Background: Dilution methods test growth across graded concentrations, often in twofold steps.
Assay [2] relates to Bacteroides thetiotaomicron ATCC 29741. Nature of the assay: Antimicrobial susceptibility, broth microdilution MIC (CLSI), QC strain. The arrangement: MIC, QC ATCC 297415: unit not given beside the values. To be noted: for MIC: Bacteroides, ATCC 29741 / ATCC 297415, read-out: MIC, QC ATCC 297415.
For assay [3], the system named is Akkermansia muciniphila ATCC BAA-835. Nature of the assay: Antimicrobial susceptibility, broth microdilution MIC (CLSI), type strain. The note with it: for MIC: Akkermansia muciniphila, ATCCBAA835, broth microdilution, read-out: MIC, test strain ATCC BAA-835.

Take `O=C(N[C@H](CO)[C@H](O)c1ccc([N+](=O)[O-])cc1)C(Cl)Cl` [CHL, chloramphenicol]: the results for the MIC in assay [1], in assay [2] and in assay [3] were 8 µg/mL (≈ 24.8 µM), 8 µg/mL (≈ 24.8 µM) and 4 µg/mL (≈ 12.4 µM), respectively. The “Susceptibility category by MIC breakpoints, CHL” value in assay [1] (EB-AMDK39, CHL breakpoints) is “S (≤8)”; in assay [3] (ATCC BAA-835, CHL breakpoints), “S (≤8)”.

For the molecule `CO/N=C(\C(=O)N[C@@H]1C(=O)N2C(C(=O)O)=CCS[C@H]12)c1csc(N)n1` [CTZ, ceftizoxime], the MIC in assay [1] was 256 µg/mL (≈ 668 µM); in assay [2], 16 µg/mL (≈ 41.7 µM); in assay [3], 2 µg/mL (≈ 5.22 µM). Also, the “Susceptibility category by MIC breakpoints, CTZ” value in assay [1] (EB-AMDK39, CTZ breakpoints) is “R (≥128)”; in assay [3] (ATCC BAA-835, CTZ breakpoints), “S (≤32)”.

For the molecule Piperacillin-tazobactam [PTZ], the “Susceptibility category by MIC breakpoints, PTZ” value in assay [1] (EB-AMDK39, PTZ breakpoints) is on record as “S (≤32/4)”; in assay [3] (ATCC BAA-835, PTZ breakpoints), “S (≤32/4)”. In addition, in assay [2] (broth microdilution, QC strain), the “MIC, QC ATCC 297415” value is 8/4.

As to `CCC[C@@H]1C[C@@H](C(=O)N[C@@H]([C@H]2O[C@H](SC)[C@H](O)[C@@H](O)[C@H]2O)[C@H](C)Cl)N(C)C1` [CLI, clindamycin], the figures for the MIC in assay [1] and in assay [3] were over 64 µg/mL and at most 0.125 µg/mL, respectively. Also, the “Susceptibility category by MIC breakpoints, CLI” value in assay [1] (EB-AMDK39, CLI breakpoints) is listed as “R (≥8)”; in assay [3] (ATCC BAA-835, CLI breakpoints) it was “S (≤2)”.

With `COc1c(N2C[C@@H]3CCCN[C@@H]3C2)c(F)cc2c(=O)c(C(=O)O)cn(C3CC3)c12` [MXF, moxifloxacin], the MIC is over 32 µg/mL in assay [1], 8 µg/mL (≈ 19.9 µM) in assay [2] and over 32 µg/mL in assay [3]. For the same molecule, the “Susceptibility category by MIC breakpoints, MXF” value is listed as “R (≥8)” in assay [1] (EB-AMDK39, MXF breakpoints) and “R (≥8)” in assay [3] (ATCC BAA-835, MXF breakpoints).

Consider `C[C@@H](O)[C@H]1C(=O)N2C(C(=O)O)=C(S[C@@H]3CN[C@H](C(=O)N(C)C)C3)[C@H](C)[C@H]12` [MEM, meropenem], for which the figures for the MIC in assay [1], in assay [2] and in assay [3] were 4 µg/mL (≈ 10.4 µM), 0.5 µg/mL (≈ 1.3 µM) and 1 µg/mL (≈ 2.61 µM), respectively. Moreover, the “Susceptibility category by MIC breakpoints, MEM” value in assay [1] (EB-AMDK39, MEM breakpoints) is reported as “S (≤4)”; in assay [3] (ATCC BAA-835, MEM breakpoints) it was “S (≤4)”.

In the case of `Cc1ncc([N+](=O)[O-])n1CCO` [MTZ, metronidazole], the values for the MIC in assay [1], in assay [2] and in assay [3] were 1 µg/mL (≈ 5.84 µM), 2 µg/mL (≈ 11.7 µM) and at most 0.25 µg/mL, respectively. Moreover, the “Susceptibility category by MIC breakpoints, MTZ” value in assay [1] (EB-AMDK39, MTZ breakpoints) is recorded as “S (≤8)”; in assay [3] (ATCC BAA-835, MTZ breakpoints) it was “S (≤8)”.

These data come from patent US20250057893A1, “PHARMACEUTICAL COMPOSITION FOR PREVENTING OR TREATING CANCER OR INFLAMMATORY DISEASE” (ENTEROBIOME INC., priority 2021, published 2025).
